# Laboratory results published in patent publication US20100150887A1, “Tissue Progenitor Cells That Overexpress ERG” (priority 2007, published 2010).
# Test system: HERG overexpressing cells
# Assay: Dofetilide responsiveness of action potentials
# Settings: action potential after 1, 2 or 3 minute treatment (FIGS. 3A-D)
# Experimental: AP is shown with-out DOF (FIG. 3A), or after 1 minute (FIG. 3B), 2 minute (FIG. 3C), or 3 minute treatments (FIG. 3D).
smiles,measurement,value
"CN(CCOc1ccc(NS(C)(=O)=O)cc1)CCc1ccc(NS(C)(=O)=O)cc1 [dofetilide, Dofetilide]",sensitivity to the effects of dofetilide,sensitive
